From patent US20110111044A1, “NANOPARTICLE COMPOSITIONS FOR NUCLEIC ACIDS DELIVERY SYSTEM” (ENZON PHARMACEUTICALS, INC., priority 2008, published 2011) come the findings set out here.

The test system of data set [1] is ErbB3 mRNA. In words: ErbB3 mRNA KD in tumor of 15PC3 human prostate cancer xenografted mice. Type of data set: in vivo. Particulars: 45 mg/kg i.v. q3d×4 (G8). The protocol: (§1) The in vivo efficacy of nanoparticles described herein was evaluated in human prostate cancer xenografted mice. The 15PC3 human prostate tumors were established in nude mice by subcutaneous injection of 5×10^6 cells/mouse into the right auxiliary flank. When tumors reached the average volume of 100 mm^3, the mice were randomly grouped 5 mice per group. The mice of each group were treated with nanoparticle encapsulating antisense ErbB3 oligonucleotides (Sample NP5) or corresponding naked oligonucleotides (Oligo 2). The nanoparticles were given intravenously (i.v.) at 15 mg/kg/dose, 5 mg/kg/dose, 1 mg/kg/dose, or 0.5 mg/kg/dose at q3d×4 for 12 days. The dosage amount is based on the amount of oligonucleotides in the nanoparticles. The naked oligonucleotides were given intraperitoneally (i.p.) at 30 mg/kg/dose or intravenously at 25 mg/kg/dose or 45 mg/kg/dose at q3d×4 for 12 days. The mice were sacrificed twenty four hours after the final dose. Plasma samples were collected from the mice and stored at −20° C. Tumor and liver samples were also collected from the mice. The samples were analyzed for mRNA KD.

The subject of data set [2] is ErbB3 mRNA. In words: ErbB3 mRNA KD in liver of 15PC3 human prostate cancer xenografted mice. The class given is in vivo. Particulars: 25 mg/kg/dose i.v. q3d×4 (G7). The procedure: as §1

With “Oligo-2: antisense ErbB3 LNA, 5′-TAGcctgtcacttmCTmC-3′, phosphorothioate linkage; naked oligonucleotide (antisense 5'-TAGcctgtcactt^{m}CT^{m}C-3'; LNA, as printed in the source, key not given here)”, the “ErbB3 mRNA expression inhibited in tumor” value in the data set with ErbB3 mRNA [1] is given as “about 37%”. The “ErbB3 mRNA KD activity in liver” value with ErbB3 mRNA [2] was “about 87%”.
